Results from ChEMBL document CHEMBL3585316, “Discovery, bioactivity and docking simulation of Vorinostat analogues containing 1,2,4-oxadiazole moiety as potent histone deacetylase inhibitors and antitumor agents” (Bioorg Med Chem, 2015).

Experiments:
[1] = molecular target: Histone deacetylase 1 (Homo sapiens, UniProt Q13547); assay: Inhibition of recombinant HDAC1 (unknown origin) incubated for 10 mins using Boc-Lys(acetyl)-AMC fluorogenic substrate by homogeneous fluorescence release assay
[2] = molecular target: Histone deacetylase 2 (Homo sapiens, UniProt Q92769); assay: Inhibition of recombinant HDAC2 (unknown origin) incubated for 10 mins using Boc-Lys(acetyl)-AMC fluorogenic substrate by homogeneous fluorescence release assay
Histone deacetylase 2, sequence (Q92769 whole entry): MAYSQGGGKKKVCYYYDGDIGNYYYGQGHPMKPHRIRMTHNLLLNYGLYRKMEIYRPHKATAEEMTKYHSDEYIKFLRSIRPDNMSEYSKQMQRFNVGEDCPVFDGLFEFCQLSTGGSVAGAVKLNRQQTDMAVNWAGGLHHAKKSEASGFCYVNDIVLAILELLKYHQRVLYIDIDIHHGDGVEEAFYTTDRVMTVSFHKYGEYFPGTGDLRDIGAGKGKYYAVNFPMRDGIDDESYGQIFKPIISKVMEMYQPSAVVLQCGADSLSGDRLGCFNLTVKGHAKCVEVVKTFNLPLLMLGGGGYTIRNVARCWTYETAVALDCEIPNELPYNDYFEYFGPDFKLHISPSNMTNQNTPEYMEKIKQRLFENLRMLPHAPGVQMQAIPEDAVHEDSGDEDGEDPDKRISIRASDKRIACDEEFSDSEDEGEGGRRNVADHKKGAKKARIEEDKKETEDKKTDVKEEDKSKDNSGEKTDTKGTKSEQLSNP

[3] = test system: U-937; assay: Antiproliferative activity against human U937 cells incubated for 72 hrs by MTT assay; assay type: functional, cell-based; conditions: U-937, 72 h
[4] = test system: A549; assay: cells; conditions: Homo sapiens, A549, 72 h
Description: Antiproliferative activity against human A549 cells incubated for 72 hrs by MTT assay

[5] = molecular target: T1, Histone deacetylase 8 (Homo sapiens, UniProt Q9BY41); assay: Inhibition of recombinant HDAC8 (unknown origin) incubated for 10 mins using Boc-Lys(acetyl)-AMC fluorogenic substrate by homogeneous fluorescence release assay
T1 sequence (Q9BY41 whole entry): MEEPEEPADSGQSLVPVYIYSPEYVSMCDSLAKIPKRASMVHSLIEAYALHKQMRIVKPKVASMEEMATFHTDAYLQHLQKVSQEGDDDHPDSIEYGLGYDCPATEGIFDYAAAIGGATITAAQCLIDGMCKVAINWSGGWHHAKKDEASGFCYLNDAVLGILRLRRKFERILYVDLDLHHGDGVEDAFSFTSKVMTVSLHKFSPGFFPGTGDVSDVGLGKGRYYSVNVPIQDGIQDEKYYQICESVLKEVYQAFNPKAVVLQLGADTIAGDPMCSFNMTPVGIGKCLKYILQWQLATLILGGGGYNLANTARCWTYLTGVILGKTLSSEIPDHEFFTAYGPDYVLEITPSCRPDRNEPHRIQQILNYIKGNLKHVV

[6] = test system: NCI-H661; assay: Antiproliferative activity against human NCI-H661 cells incubated for 72 hrs by MTT assay; assay type: functional, cell-based; conditions: NCI-H661, 72 h
[7] = molecular target: Histone deacetylase; assay: Inhibition of histone deacetylase (unknown origin) by intracellular cell based assay; parameters: species or system Homo sapiens
[8] = molecular target: Histone deacetylase; assay: Inhibition of histone deacetylase (unknown origin) by cell-free assay; assay type: protein assay, Homo sapiens

Histone deacetylase 1, sequence (Q13547 whole entry): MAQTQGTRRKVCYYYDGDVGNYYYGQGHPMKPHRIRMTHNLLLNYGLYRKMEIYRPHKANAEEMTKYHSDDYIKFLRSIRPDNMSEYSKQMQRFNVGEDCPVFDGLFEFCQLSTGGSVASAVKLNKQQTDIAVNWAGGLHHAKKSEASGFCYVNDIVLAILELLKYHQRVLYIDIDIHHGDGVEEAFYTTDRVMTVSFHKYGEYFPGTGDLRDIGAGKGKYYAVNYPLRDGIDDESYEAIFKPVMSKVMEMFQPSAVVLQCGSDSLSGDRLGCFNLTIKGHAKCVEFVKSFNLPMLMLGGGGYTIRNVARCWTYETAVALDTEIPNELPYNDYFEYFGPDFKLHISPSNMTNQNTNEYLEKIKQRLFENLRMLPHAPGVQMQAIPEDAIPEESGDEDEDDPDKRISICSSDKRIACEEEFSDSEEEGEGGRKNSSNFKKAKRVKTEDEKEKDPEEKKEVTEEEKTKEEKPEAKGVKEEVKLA

Nc1ccccc1NC(=O)CCCCCCc1nc(-c2ccccc2)no1
IC50 [1]: 0.21 µM | IC50 [2]: 0.73 µM | IC50 [3]: 0.73 µM | IC50 [4]: 23.9 µM | IC50 [5]: > 10 µM | IC50 [6]: 0.96 µM

Cc1ccc(-c2noc(CCCCCCC(=O)C(F)(F)F)n2)cc1
IC50 [1]: > 10 µM | IC50 [2]: 7.32 µM | IC50 [3]: 3.73 µM | IC50 [4]: > 100 µM | IC50 [5]: 3.19 µM | IC50 [6]: 18.7 µM

O=C(CCCCCCc1nc(-c2ccc([N+](=O)[O-])cc2)no1)C(F)(F)F
IC50 [1]: > 10 µM | IC50 [2]: 8.15 µM | IC50 [3]: 3.68 µM | IC50 [4]: > 100 µM | IC50 [5]: 3.17 µM | IC50 [6]: 17.5 µM

O=C(CCCCCCc1nc(-c2ccc(Cl)cc2)no1)C(F)(F)F
IC50 [1]: > 10 µM | IC50 [2]: 8.56 µM | IC50 [3]: 4.67 µM | IC50 [4]: 18.5 µM | IC50 [5]: 2.08 µM | IC50 [6]: 11.9 µM

Nc1ccccc1NC(=O)CCCCCCc1nc(-c2ccc(F)cc2)no1
IC50 [1]: 0.88 µM | IC50 [2]: 2.57 µM | IC50 [3]: 3.08 µM | IC50 [4]: 31.2 µM | IC50 [5]: > 10 µM | IC50 [6]: 9.53 µM

O=C(CCCCCCc1nc(-c2ccc(F)cc2)no1)C(F)(F)F
IC50 [1]: > 10 µM | IC50 [2]: > 10 µM | IC50 [3]: 2.35 µM | IC50 [4]: > 100 µM | IC50 [5]: 7.65 µM | IC50 [6]: 12.7 µM

O=C(CCCCCCc1nc(-c2cccnc2)no1)NO
IC50 [1]: 0.08 µM | IC50 [2]: 0.39 µM | IC50 [3]: 0.35 µM | IC50 [4]: 5.34 µM | IC50 [5]: 1.83 µM | IC50 [6]: 6.02 µM

Nc1ccccc1NC(=O)CCCCCCc1nc(-c2ccc(Cl)cc2)no1
IC50 [1]: 1.56 µM | IC50 [2]: 6.29 µM | IC50 [3]: 4.36 µM | IC50 [4]: 13.8 µM | IC50 [5]: > 10 µM | IC50 [6]: 11.2 µM

O=C(CCCCCCc1nc(-c2cccc([N+](=O)[O-])c2)no1)NO
IC50 [1]: 0.35 µM | IC50 [2]: 1.56 µM | IC50 [3]: 1.16 µM | IC50 [4]: 10.8 µM | IC50 [5]: 2.38 µM | IC50 [6]: 16.1 µM

Nc1ccccc1NC(=O)CCCCCCc1nc(-c2cccc([N+](=O)[O-])c2)no1
IC50 [1]: 0.82 µM | IC50 [2]: 5.19 µM | IC50 [3]: 2.15 µM | IC50 [4]: 20.2 µM | IC50 [5]: > 10 µM | IC50 [6]: 7.29 µM

O=C(CCCCCCc1nc(-c2ccc(C(F)(F)F)cc2)no1)C(F)(F)F
IC50 [1]: 8.25 µM | IC50 [2]: 2.79 µM | IC50 [3]: 1.96 µM | IC50 [4]: 28.8 µM | IC50 [5]: 1.03 µM | IC50 [6]: 6.39 µM

Cc1ccc(-c2noc(CCCCCCC(=O)NO)n2)cc1
IC50 [1]: 0.49 µM | IC50 [2]: 2.78 µM | IC50 [3]: 1.36 µM | IC50 [4]: 5.81 µM | IC50 [5]: 5.39 µM | IC50 [6]: 15.8 µM

Nc1ccccc1NC(=O)CCCCCCc1nc(-c2ccc([N+](=O)[O-])cc2)no1
IC50 [1]: 8.67 µM | IC50 [2]: > 10 µM | IC50 [3]: 10.2 µM | IC50 [4]: > 100 µM | IC50 [5]: > 10 µM | IC50 [6]: > 100 µM

Nc1ccccc1NC(=O)CCCCCCc1nc(-c2ccc(C(F)(F)F)cc2)no1
IC50 [1]: 3.04 µM | IC50 [2]: > 10 µM | IC50 [3]: 5.28 µM | IC50 [4]: > 100 µM | IC50 [5]: > 10 µM | IC50 [6]: 29.8 µM

COc1ccc(-c2noc(CCCCCCC(=O)NO)n2)cc1
IC50 [1]: 2.18 µM | IC50 [2]: > 10 µM | IC50 [3]: 3.65 µM | IC50 [4]: 13.5 µM | IC50 [5]: > 10 µM | IC50 [6]: 20.4 µM

Nc1ccccc1NC(=O)CCCCCCc1nc(-c2cccs2)no1
IC50 [1]: 0.76 µM | IC50 [2]: 2.87 µM | IC50 [3]: 1.59 µM | IC50 [4]: 28.7 µM | IC50 [5]: > 10 µM | IC50 [6]: 6.18 µM

O=C(CCCCCCc1nc(-c2ccc(F)cc2)no1)NO
IC50 [1]: 1.15 µM | IC50 [2]: 6.26 µM | IC50 [3]: 1.93 µM | IC50 [4]: 5.77 µM | IC50 [5]: 8.76 µM | IC50 [6]: 19.4 µM

O=C(CCCCCCc1nc(-c2cccc([N+](=O)[O-])c2)no1)C(F)(F)F
IC50 [1]: 3.98 µM | IC50 [2]: 0.92 µM | IC50 [3]: 0.56 µM | IC50 [4]: 9.58 µM | IC50 [5]: 0.83 µM | IC50 [6]: 6.43 µM

O=C(CCCCCCc1nc(-c2ccc([N+](=O)[O-])cc2)no1)NO
IC50 [1]: 0.07 µM | IC50 [2]: 0.23 µM | IC50 [3]: 0.29 µM | IC50 [4]: 5.31 µM | IC50 [5]: 2.56 µM | IC50 [6]: 3.09 µM

Cc1ccc(-c2noc(CCCCCCC(=O)Nc3ccccc3N)n2)cc1
IC50 [1]: 0.14 µM | IC50 [2]: 0.68 µM | IC50 [3]: 0.46 µM | IC50 [4]: 9.17 µM | IC50 [5]: 8.39 µM | IC50 [6]: 0.41 µM

Nc1ccccc1NC(=O)CCCCCCc1nc(-c2ccccc2Cl)no1
IC50 [1]: 4.13 µM | IC50 [2]: > 10 µM | IC50 [3]: 6.91 µM | IC50 [4]: > 100 µM | IC50 [5]: > 10 µM | IC50 [6]: 8.31 µM

O=C(CCCCCCc1nc(-c2ccc(C(F)(F)F)cc2)no1)NO
IC50 [1]: 1.92 µM | IC50 [2]: 7.93 µM | IC50 [3]: 2.87 µM | IC50 [4]: 14 µM | IC50 [5]: > 10 µM | IC50 [6]: 15.3 µM

O=C(CCCCCCc1nc(-c2cccs2)no1)NO
IC50 [1]: 0.12 µM | IC50 [2]: 0.51 µM | IC50 [3]: 0.32 µM | IC50 [4]: 4.37 µM | IC50 [5]: 1.92 µM | IC50 [6]: 9.46 µM

O=C(CCCCCCc1nc(-c2cccs2)no1)C(F)(F)F
IC50 [1]: 5.17 µM | IC50 [2]: 1.63 µM | IC50 [3]: 1.28 µM | IC50 [4]: 11.7 µM | IC50 [5]: 0.95 µM | IC50 [6]: 7.53 µM

O=C(CCCCCCc1nc(-c2ccccc2)no1)C(F)(F)F
IC50 [1]: 5.32 µM | IC50 [2]: 1.05 µM | IC50 [3]: 0.41 µM | IC50 [4]: 7.68 µM | IC50 [5]: 0.76 µM | IC50 [6]: 0.52 µM

Nc1ccccc1NC(=O)c1ccc(CNC(=O)OCc2cccnc2)cc1 [ENTINOSTAT]
IC50 [3]: 0.55 µM

COc1ccc(-c2noc(CCCCCCC(=O)Nc3ccccc3N)n2)cc1
IC50 [1]: 0.91 µM | IC50 [2]: 3.85 µM | IC50 [3]: 2.69 µM | IC50 [4]: 19.5 µM | IC50 [5]: > 10 µM | IC50 [6]: 7.99 µM

COc1ccc(-c2noc(CCCCCCC(=O)C(F)(F)F)n2)cc1
IC50 [1]: 9.63 µM | IC50 [2]: 4.53 µM | IC50 [3]: 1.17 µM | IC50 [4]: 35.9 µM | IC50 [5]: 1.86 µM | IC50 [6]: 5.05 µM

O=C(CCCCCCc1nc(-c2ccccc2Cl)no1)C(F)(F)F
IC50 [1]: 7.65 µM | IC50 [2]: 1.58 µM | IC50 [3]: 0.92 µM | IC50 [4]: 6.16 µM | IC50 [5]: 0.71 µM | IC50 [6]: 1.25 µM

O=C(CCCCCCc1nc(-c2ccccc2Cl)no1)NO
IC50 [1]: 0.19 µM | IC50 [2]: 1.25 µM | IC50 [3]: 0.75 µM | IC50 [4]: 8.87 µM | IC50 [5]: 3.65 µM | IC50 [6]: 10.3 µM

O=C(CCCCCCc1nc(-c2ccc(Cl)cc2)no1)NO
IC50 [1]: 0.68 µM | IC50 [2]: 5.19 µM | IC50 [3]: 0.98 µM | IC50 [4]: 11.9 µM | IC50 [5]: > 10 µM | IC50 [6]: 17.3 µM

Nc1ccccc1NC(=O)CCCCCCc1nc(-c2cccnc2)no1
IC50 [1]: 1.05 µM | IC50 [2]: 3.16 µM | IC50 [3]: 2.07 µM | IC50 [4]: > 100 µM | IC50 [5]: > 10 µM | IC50 [6]: 15.4 µM

O=C(CCCCCCc1nc(-c2ccccc2)no1)NO
IC50 [1]: 0.38 µM | IC50 [2]: 1.17 µM | IC50 [3]: 1.25 µM | IC50 [4]: 7.08 µM | IC50 [5]: 2.05 µM | IC50 [6]: 17.3 µM

O=C(CCCCCc1nc2cc3ccccc3cc2[nH]1)C(F)(F)F
IC50 [7]: 1.8 µM | IC50 [8]: 0.6 µM
